From publication PMC6367500, “18β-glycyrrhetyl-3-O-sulfate would be a causative agent of licorice-induced pseudoaldosteronism” (Scientific Reports, 2019)
Like-named read-outs stand apart in the source and are kept apart here.

What was measured:
OAT1 [1] = target: T1, OAT1 (Homo sapiens, UniProt Q4U2R8); conditions: cited from earlier work
T1 construct: expressed in transfected cells; host or cells: MDCK II cells
T1 sequence (Q4U2R8 1-563): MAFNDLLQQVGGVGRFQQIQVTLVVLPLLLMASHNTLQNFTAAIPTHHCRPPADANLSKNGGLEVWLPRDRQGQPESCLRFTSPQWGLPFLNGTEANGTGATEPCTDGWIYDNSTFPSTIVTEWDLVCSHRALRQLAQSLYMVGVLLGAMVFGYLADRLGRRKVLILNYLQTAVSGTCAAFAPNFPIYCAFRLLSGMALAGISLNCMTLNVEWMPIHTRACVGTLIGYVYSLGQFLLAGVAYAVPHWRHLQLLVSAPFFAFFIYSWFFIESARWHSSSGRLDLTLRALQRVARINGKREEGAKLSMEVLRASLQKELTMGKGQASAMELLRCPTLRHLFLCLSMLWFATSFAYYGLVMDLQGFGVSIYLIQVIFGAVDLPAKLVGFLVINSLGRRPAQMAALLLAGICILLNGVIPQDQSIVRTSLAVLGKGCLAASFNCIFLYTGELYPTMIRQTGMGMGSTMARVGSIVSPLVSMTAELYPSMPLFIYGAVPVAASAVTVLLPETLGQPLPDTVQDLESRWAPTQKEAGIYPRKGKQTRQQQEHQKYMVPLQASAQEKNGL

[2] = target: T2, rat type 2 11β-hydroxysteroid dehydrogenase (11β-HSD2) (Rattus norvegicus, UniProt P50233); conditions: rat kidney microsome fraction; cited from earlier work
T2 construct: each compound were mixed with the rat kidney microsome fraction, and incubated at 37 °C for 30 min; from tissue; host or cells: rat kidney microsome fraction
T2 sequence (P50233 1-400): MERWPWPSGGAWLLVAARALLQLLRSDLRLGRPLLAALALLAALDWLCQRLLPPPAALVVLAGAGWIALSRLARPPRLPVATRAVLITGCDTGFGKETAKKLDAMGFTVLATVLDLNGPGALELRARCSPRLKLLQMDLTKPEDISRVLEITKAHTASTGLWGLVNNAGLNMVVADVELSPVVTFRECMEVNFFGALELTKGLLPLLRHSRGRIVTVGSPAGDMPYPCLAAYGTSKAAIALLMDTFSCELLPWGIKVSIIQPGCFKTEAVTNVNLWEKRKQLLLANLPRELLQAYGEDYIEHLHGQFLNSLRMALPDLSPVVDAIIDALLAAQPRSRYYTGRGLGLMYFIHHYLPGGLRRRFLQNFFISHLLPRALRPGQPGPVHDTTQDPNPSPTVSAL

OAT3 [3] = target: T3, OAT3 (Homo sapiens, UniProt Q8TCC7); conditions: cited from earlier work
T3 construct: expressed in transfected cells; host or cells: MDCK II cells
T3 sequence (Q8TCC7 1-542): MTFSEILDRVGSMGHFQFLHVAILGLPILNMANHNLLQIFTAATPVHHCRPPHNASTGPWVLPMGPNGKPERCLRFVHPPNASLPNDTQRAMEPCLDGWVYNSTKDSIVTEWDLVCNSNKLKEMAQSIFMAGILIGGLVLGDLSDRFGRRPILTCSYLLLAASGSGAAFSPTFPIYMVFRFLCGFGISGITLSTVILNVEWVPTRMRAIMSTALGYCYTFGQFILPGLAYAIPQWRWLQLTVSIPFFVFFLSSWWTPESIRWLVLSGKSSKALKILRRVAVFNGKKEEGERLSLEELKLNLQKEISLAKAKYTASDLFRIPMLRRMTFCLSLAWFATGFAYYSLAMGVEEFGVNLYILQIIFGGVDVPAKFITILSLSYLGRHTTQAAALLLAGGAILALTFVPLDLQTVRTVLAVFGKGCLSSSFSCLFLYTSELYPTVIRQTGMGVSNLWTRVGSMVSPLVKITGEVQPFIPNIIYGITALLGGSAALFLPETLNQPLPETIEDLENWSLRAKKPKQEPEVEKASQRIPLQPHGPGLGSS

OAT3 [4] = target: T3, OAT3; assay: Uptake into MDCK II cells stably expressing OAT3; assay type: cell-based; conditions: pooled EHBR plasma, pH 5.5, 37 °C, 15 min
Experimental: (§1) Kidneys were collected from normal SD rats, and the kidney slices were incubated with the plasma samples of EHBRs at 37 °C or 4 °C for 2 h (A–C). MDCK II cells stably expressing OAT1 or OAT3 were incubated with the plasma samples of EHBRs at 37 °C for 15 min (D–F). […] Data are expressed as mean ± S.E. (n = 3 for (C, D), and (E); n = 6 for (A, B), and F). *P < 0.05 and **P < 0.01 vs 4 °C group by Student’s t-test for (A–C), and vs mock cells by Dunnett’s multiple t-test for (D–F).
(§2) Uptake studies using rat kidney slices and cells stably expressing OAT1 and OAT3 were conducted with the same protocol as in our previous study.

[5] = target: T2, rat type 2 11β-hydroxysteroid dehydrogenase (11β-HSD2); assay: Inhibition of 11β-HSD2 in rat kidney microsome fraction; assay type: biochemical; conditions: for IC50: 37 °C, 30 min
Experimental: Compounds 2 and 3 inhibited 11β-HSD2 in a rat kidney microsome fraction in a concentrations-dependent manner (Fig. 2).
Figure 2 Inhibitory effects of 2 and 3 on 11β-HSD2 using rat kidney microsome. [^3H] cortisone and each compound were mixed with the rat kidney microsome fraction, and incubated at 37 °C for 30 min. Then, the amount of [^3H] cortisol was measured. Data are expressed as mean ± S.E. (n = 4) of the percentage relative to the amount of [^3H] cortisol in the mixture without samples. **P < 0.01 and ***P < 0.001 compared with the groups without the samples by Dunnett’s multiple t-test for compounds 2 and 3, and by Student’s t-test for GA.
Assays were conducted as described by Diederich et al.[20] with slight modifications as described in our previous report.

OAT1 [6] = target: T1, OAT1; assay: Uptake into MDCK II cells stably expressing OAT1; assay type: cell-based; conditions: pooled EHBR plasma, pH 5.5, 37 °C, 15 min
Experimental: as §1, §2

| Structure (SMILES) | substrate of OAT1 (OAT1 [1]) | IC50 [2] [nM] | substrate of OAT3 (OAT3 [3]) | uptake into cells expressing OAT3 compared with mock cells (OAT3 [4]) | inhibitory titer on 11β-HSD2 compared with GA [5] | IC50 [5] [nM] | uptake into cells expressing OAT1 compared with mock cells (OAT1 [6]) |
| --- | --- | --- | --- | --- | --- | --- | --- |
| CC1(C)[C@@H](O[C@@H]2O[C@H](C(=O)O)[C@@H](O)[C@H](O)[C@H]2O)CC[C@]2(C)[C@H]3C(=O)C=C4[C@@H]5C[C@@](C)(C(=O)O)CC[C@]5(C)CC[C@@]4(C)[C@]3(C)CC[C@@H]12 [3MGA, 3-monoglucuronyl glycyrrhetinic acid, reference compound] | substrate | 250 | substrate | – | – | – | – |
| CC1(C)[C@@H](OS(=O)(=O)O)CC[C@]2(C)[C@H]3C(=O)C=C4[C@@H]5C[C@@](C)(C(=O)O[C@@H]6O[C@H](C(=O)O)[C@@H](O)[C@H](O)[C@H]6O)C[C@H](O)[C@]5(C)CC[C@@]4(C)[C@]3(C)CC[C@@H]12 [compound 1, 22α-hydroxy-18β-glycyrrhetyl-3-O-sulfate-30-glucuronide] | substrate | 2000 | substrate | – | – | – | – |
| CC1(C)[C@@H](OS(=O)(=O)O)CC[C@]2(C)[C@H]3C(=O)C=C4[C@@H]5C[C@@](C)(C(=O)O)C[C@H](O)[C@]5(C)CC[C@@]4(C)[C@]3(C)CC[C@@H]12 [compound 2, 22α-hydroxy-18β-glycyrrhetyl-3-O-sulfate] | – | – | – | significantly higher | slightly higher than that of GA | 110 | significantly higher |
| CC1(C)[C@@H](OS(=O)(=O)O)CC[C@]2(C)[C@H]3C(=O)C=C4[C@@H]5C[C@@](C)(C(=O)O)CC[C@]5(C)CC[C@@]4(C)[C@]3(C)CC[C@@H]12 [compound 3, 18β-glycyrrhetyl-3-O-sulfate] | – | – | – | significantly higher | slightly higher than that of GA | 100 | significantly higher |
